Consider nine compounds from patent publication US9090599B2, “Heteroarylmethyl amides” (Hoffman-La Roche Inc., priority 2010, dated 2015).

Where two headings read alike, the source gives them in different places.

The test system of one test is ABCA1 protein. Briefly: Detection of upregulation of ABCA1 protein in THP-1 macrophage cells (ApoA-I binding, high content imaging). It is filed as cell-based. To be noted: 24 hrs with compound, AlexaFluor 647 ApoA-I binding, read-out: ABCA1 protein increasing efficacy EC50.
A further test addresses T1, human CB2 receptor (Homo sapiens, UniProt P34972).
T1 construct: expressed in transfected cells; host or cells: human embryonic kidney (HEK) cells, Semliki Forest Virus system, membrane preparations
The test can be described thus: CB2 receptor affinity, [3H]-CP-55,940 displacement, HEK cell membranes. It is filed as binding. Conditions: 10 μM compound, radioligand [3H]-CP-55,940. The method, boiled down:
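Membranes from HEK cells transiently expressing human CB2 (Semliki Forest Virus) incubated with [3H]-CP-55,940 ± compound at 10 μM. Bound ligand separated by glass-fibre filtration and counted by scintillation; reported as % inhibition at 10 μM.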

The target in another test is T2, human CB1 receptor (Homo sapiens, UniProt P21554).
T2 construct: expressed in transfected cells; host or cells: human embryonic kidney (HEK) cells, Semliki Forest Virus system, membrane preparations
Briefly: CB1 receptor affinity, [3H]-CP-55,940 displacement, HEK cell membranes. It is filed as binding. To be noted: read-out: CB1 receptor affinity [% inhibition @ 10 μM]. The method, boiled down: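 Membranes from HEK cells transiently expressing human CB1 (Semliki Forest Virus system) incubated with [3H]-CP-55,940 with or without test compound. Bound and free ligand separated by glass-fibre filtration and bound radioactivity counted by scintillation. Compounds tested at 10 μM, values reported as % inhibition of radioligand binding.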

Setting [1] is: 10 μM compound, radioligand [3H]-CP-55,940.

T1 sequence (P34972 whole entry): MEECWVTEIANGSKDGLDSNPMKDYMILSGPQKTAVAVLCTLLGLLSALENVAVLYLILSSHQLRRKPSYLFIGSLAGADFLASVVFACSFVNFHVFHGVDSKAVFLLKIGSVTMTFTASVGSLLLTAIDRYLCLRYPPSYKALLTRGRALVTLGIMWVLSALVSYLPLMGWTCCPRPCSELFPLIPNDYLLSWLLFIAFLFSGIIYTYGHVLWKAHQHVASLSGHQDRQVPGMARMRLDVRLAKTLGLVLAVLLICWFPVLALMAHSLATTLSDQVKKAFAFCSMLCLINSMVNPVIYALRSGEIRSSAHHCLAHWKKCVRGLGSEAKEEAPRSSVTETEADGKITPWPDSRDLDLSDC
T2 sequence (P21554 whole entry): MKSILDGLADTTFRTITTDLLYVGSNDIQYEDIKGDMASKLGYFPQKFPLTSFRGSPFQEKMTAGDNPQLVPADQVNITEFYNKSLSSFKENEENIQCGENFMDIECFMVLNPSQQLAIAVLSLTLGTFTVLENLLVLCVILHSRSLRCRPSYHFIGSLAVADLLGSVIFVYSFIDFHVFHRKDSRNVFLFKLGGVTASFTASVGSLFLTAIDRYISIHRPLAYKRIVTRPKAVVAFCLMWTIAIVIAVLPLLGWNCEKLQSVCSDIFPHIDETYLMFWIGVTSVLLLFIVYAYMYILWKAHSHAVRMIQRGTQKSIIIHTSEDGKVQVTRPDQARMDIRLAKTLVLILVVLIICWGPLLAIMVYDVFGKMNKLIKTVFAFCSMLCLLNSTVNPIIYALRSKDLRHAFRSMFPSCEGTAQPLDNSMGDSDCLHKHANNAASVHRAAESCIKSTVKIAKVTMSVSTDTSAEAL

In the case of `Cc1ccc(-c2cc(C(=O)NCc3nc(C(F)(F)F)no3)cnc2OCC(F)(F)F)cc1Cl` [Example 80, 5-(3-chloro-4-methylphenyl)-6-(2,2,2-trifluoroethoxy)-N-((3-(trifluoromethyl)-1,2,4-oxadiazol-5-yl)methyl)nicotinamide], in the test with ABCA1 protein, the EC50 is 3130 nM. Besides, the inhibition at 10 µM on human CB2 receptor is -4%; on human CB1 receptor (setting [1]), 15%.
With `O=C(NCc1noc(C(F)(F)F)n1)c1cnc(OCC(F)(F)F)c(-c2ccc(Cl)cc2)c1` [Example 12, 5-(4-chloro-phenyl)-6-(2,2,2-trifluoro-ethoxy)-N-(5-trifluoromethyl-[1,2,4]oxadiazol-3-ylmethyl)-nicotinamide], in the test on ABCA1 protein, the concentration for a half-maximal effect (EC50) amounted to 1180 nM. The inhibition at 10 µM on human CB2 receptor was -4%; at human CB1 receptor (setting [1]), 43%.
With `CCCn1ccc(CNC(=O)c2cc(-c3ccc(Cl)cc3)c(OCC(F)(F)F)cn2)n1` [Example 4, 4-(4-chloro-phenyl)-5-(2,2,2-trifluoro-ethoxy)-pyridine-2-carboxylic acid (1-propyl-1H-pyrazol-3-ylmethyl)-amide], the EC50 in the test on ABCA1 protein worked out at 2800 nM. Further, the inhibition at 10 µM on human CB2 receptor worked out at 33%; at human CB1 receptor (setting [1]) it was 26%.
Consider `COc1cc(CNC(=O)c2cc(-c3ccc(Cl)c(C)c3)c(OCC(F)(F)F)cn2)on1` [Example 74, 4-(4-chloro-3-methylphenyl)-N-((3-methoxyisoxazol-5-yl)methyl)-5-(2,2,2-trifluoroethoxy)picolinamide], for which the EC50 in the test with ABCA1 protein is 1300 nM. Also, the inhibition at 10 µM amounted to 22% at human CB2 receptor and 11% at human CB1 receptor.
Regarding `CC(C)c1cc(CNC(=O)c2cnc(OCC(F)(F)F)c(-c3ccc(Cl)cc3)c2)no1` [Example 31, 5-(4-chlorophenyl)-N-((5-isopropylisoxazol-3-yl)methyl)-6-(2,2,2-trifluoroethoxy)nicotinamide], the EC50 in the test with ABCA1 protein worked out at 530 nM. Besides, the inhibition at 10 µM on human CB2 receptor came to 11%; at human CB1 receptor, 47%.
For the compound `COc1cc(CNC(=O)c2cnc(O[C@@H](C)C(F)(F)F)c(-c3ccc(Cl)cc3)n2)on1` [Example 29, (S)-6-(4-chlorophenyl)-N-((3-methoxyisoxazol-5-yl)methyl)-5-(1,1,1-trifluoropropan-2-yloxy)pyrazine-2-carboxamide], the EC50 with ABCA1 protein is 1870 nM. Besides, the figures for the inhibition at 10 µM at human CB2 receptor and on human CB1 receptor (setting [1]) were 17% and 27%, respectively.
Turning to `O=C(NCc1nc(C(F)(F)F)no1)c1cnc(OCC(F)(F)F)c(-c2ccc(Cl)cc2)c1` [Example 15, 5-(4-chloro-phenyl)-6-(2,2,2-trifluoro-ethoxy)-N-(3-trifluoromethyl-[1,2,4]oxadiazol-5-ylmethyl)-nicotinamide], the EC50 in the test with ABCA1 protein worked out at 840 nM. Moreover, the inhibition at 10 µM is -6% on human CB2 receptor and 45% at human CB1 receptor (setting [1]).
In the case of `CCc1cc(CNC(=O)c2cc(-c3ccc(Cl)cc3)c(OCC(F)(F)F)cn2)on1` [Example 3, 4-(4-chloro-phenyl)-5-(2,2,2-trifluoro-ethoxy)-pyridine-2-carboxylic acid (3-ethyl-isoxazol-5-ylmethyl)-amide], the EC50 in the test with ABCA1 protein is 1240 nM. Also, the figures for the inhibition at 10 µM at human CB2 receptor and on human CB1 receptor were 18% and 38%, respectively.
For the compound `Cc1ccc(-c2cc(C(=O)NCc3nc(C(F)(F)F)no3)cnc2OCC(F)(F)F)cc1` [Example 79, 5-p-tolyl-6-(2,2,2-trifluoroethoxy)-N-((3-(trifluoromethyl)-1,2,4-oxadiazol-5-yl)methyl)nicotinamide], the EC50 in the test with ABCA1 protein was 1170 nM. Further, the inhibition at 10 µM on human CB2 receptor came to 4%; at human CB1 receptor (setting [1]) it was 42%.

One may read the EC50 as the concentration giving half of the maximal effect. By inhibition is commonly meant the relative decrease from the control value, in per cent.
